In ChEMBL document CHEMBL3885881, “DrugMatrix”:

Species on record: Rattus norvegicus
Assay: DrugMatrix - Regimen: Daily Repeat
Format: toxicity, organism-based, Sprague-Dawley
Design: regimen Daily Repeat, gender Male, age 6-8 weeks
Conditions: in vivo, po, route oral GAVAGE, […]; for ABSOLUTE BASOPHIL / ABSOLUTE EOSINOPHIL / ABSOLUTE LYMPHOCYTE / ABSOLUTE MONOCYTE / ABSOLUTE SEGMENTED NEUTROPHIL / BASOPHIL / EOSINOPHIL / ERYTHROCYTE COUNT / HEMATOCRIT / HEMOGLOBIN / LEUKOCYTE COUNT / LYMPHOCYTE / MEAN CORPUSCULAR HEMOGLOBIN / MEAN CORPUSCULAR HEMOGLOBIN CONCENTRATION / MEAN CORPUSCULAR VOLUME / MONOCYTE / NEUTROPHIL / NUCLEATED RED BLOOD CELLS / PLATELET COUNT: tissue Blood; for ALANINE AMINOTRANSFERASE / ALBUMIN / ALKALINE PHOSPHATASE / ASPARTATE AMINOTRANSFERASE / BLOOD UREA NITROGEN / CARBON DIOXIDE / CHLORIDE / CHOLESTEROL / CREATINE PHOSPHOKINASE / CREATININE / GLUCOSE / LACTATE DEHYDROGENASE / LIPASE / PHOSPHORUS / POTASSIUM / SODIUM / TOTAL BILIRUBIN / TOTAL PROTEIN / URIC ACID: tissue Plasma
[1] = 0 mg/kg, 72 h, dose level Control, time 3 day
[2] = 0 mg/kg, 120 h, dose level Control, time 5 day
[3] = 10 mg/kg, 72 h, dose level Low, time 3 day
[4] = 10 mg/kg, 120 h, dose level Low, time 5 day

In the case of `C#C[C@]1(O)CC[C@H]2[C@@H]3CCc4cc(O)ccc4[C@H]3CC[C@@]21C` [ETHINYL ESTRADIOL], the “ABSOLUTE BASOPHIL” value [1] is reported as 0 CELLS/uL, the “ABSOLUTE EOSINOPHIL” value [1] is reported as 104.17 CELLS/uL and the “ABSOLUTE LYMPHOCYTE” value [1] is reported as 14547 CELLS/uL. The “ABSOLUTE MONOCYTE” value [1] was 292 CELLS/uL, the “ABSOLUTE SEGMENTED NEUTROPHIL” value [1] was 1640.17 CELLS/uL and the BASOPHIL [1] was 0%. For the same molecule, the EOSINOPHIL [1] was 0.67%, the “ERYTHROCYTE COUNT” value [1] was 5.35 x10E6/uL and the HEMATOCRIT [1] was 33.67%. The HEMOGLOBIN [1] was 13.38 G/DL, the “LEUKOCYTE COUNT” value [1] was 16.58 x10E3/uL and the LYMPHOCYTE [1] was 87.5%. The “MEAN CORPUSCULAR HEMOGLOBIN” value [1] was 25.05 pg, the “MEAN CORPUSCULAR HEMOGLOBIN CONCENTRATION” value [1] was 39.78 G/DL and the “MEAN CORPUSCULAR VOLUME” value [1] was 62.97 fL. For the same molecule, the MONOCYTE [1] was 1.83%, the NEUTROPHIL [1] was 10% and the “NUCLEATED RED BLOOD CELLS” value [1] was 0 /100WBC. For the same molecule, the “PLATELET COUNT” value [1] was 1274.5 x10E3/uL, the “ALANINE AMINOTRANSFERASE” value [1] was 76.83 u/L and the ALBUMIN [1] was 3.97 G/DL. For the same molecule, the “ALKALINE PHOSPHATASE” value [1] was 347 u/L, the “ASPARTATE AMINOTRANSFERASE” value [1] was 97.17 u/L and the “BLOOD UREA NITROGEN” value [1] was 14.33 mg/dL. For the same molecule, the “CARBON DIOXIDE” value [1] was 25.5 mmol/L, the CHLORIDE [1] was 100.33 MEQ/L and the CHOLESTEROL [1] was 68.67 mg/dL. For the same molecule, the “CREATINE PHOSPHOKINASE” value [1] was 659.17 u/L, the CREATININE [1] was 0.32 mg/dL and the GLUCOSE [1] was 160.67 mg/dL. The “LACTATE DEHYDROGENASE” value [1] was 271.5 u/L, the LIPASE [1] was 11.67 u/L and the PHOSPHORUS [1] was 10.65 mg/dL. For the same molecule, the POTASSIUM [1] was 5.95 MEQ/L, the SODIUM [1] was 139.65 MEQ/L and the “TOTAL BILIRUBIN” value [1] was 0.2 mg/dL. For the same molecule, the “TOTAL PROTEIN” value [1] was 5.72 G/DL, the “URIC ACID” value [1] was 1.37 mg/dL and the “ABSOLUTE BASOPHIL” value [2] was 0 CELLS/uL. For the same molecule, the “ABSOLUTE EOSINOPHIL” value [2] was 331.5 CELLS/uL, the “ABSOLUTE LYMPHOCYTE” value [2] was 15021.67 CELLS/uL and the “ABSOLUTE MONOCYTE” value [2] was 376.5 CELLS/uL. For the same molecule, the “ABSOLUTE SEGMENTED NEUTROPHIL” value [2] was 3070.33 CELLS/uL, the BASOPHIL [2] was 0% and the EOSINOPHIL [2] was 1.83%. The “ERYTHROCYTE COUNT” value [2] was 5.24 x10E6/uL, the HEMATOCRIT [2] was 33.22% and the HEMOGLOBIN [2] was 13.2 G/DL. For the same molecule, the “LEUKOCYTE COUNT” value [2] was 18.8 x10E3/uL, the LYMPHOCYTE [2] was 79.67% and the “MEAN CORPUSCULAR HEMOGLOBIN” value [2] was 25.17 pg. For the same molecule, the “MEAN CORPUSCULAR HEMOGLOBIN CONCENTRATION” value [2] was 39.73 G/DL, the “MEAN CORPUSCULAR VOLUME” value [2] was 63.38 fL and the MONOCYTE [2] was 2%. For the same molecule, the NEUTROPHIL [2] was 16.5%, the “NUCLEATED RED BLOOD CELLS” value [2] was 0 /100WBC and the “PLATELET COUNT” value [2] was 1142.67 x10E3/uL. For the same molecule, the “ALANINE AMINOTRANSFERASE” value [2] was 52.5 u/L, the ALBUMIN [2] was 3.9 G/DL and the “ALKALINE PHOSPHATASE” value [2] was 284.5 u/L. The “ASPARTATE AMINOTRANSFERASE” value [2] was 81.33 u/L, the “BLOOD UREA NITROGEN” value [2] was 16 mg/dL and the “CARBON DIOXIDE” value [2] was 25.33 mmol/L. The CHLORIDE [2] was 99.5 MEQ/L, the CHOLESTEROL [2] was 74.83 mg/dL and the “CREATINE PHOSPHOKINASE” value [2] was 448.33 u/L. The CREATININE [2] was 0.37 mg/dL, the GLUCOSE [2] was 164.17 mg/dL and the “LACTATE DEHYDROGENASE” value [2] was 290.67 u/L. For the same molecule, the LIPASE [2] was 6.83 u/L, the PHOSPHORUS [2] was 11.5 mg/dL and the POTASSIUM [2] was 6.28 MEQ/L. For the same molecule, the SODIUM [2] was 139.5 MEQ/L, the “TOTAL BILIRUBIN” value [2] was 0.13 mg/dL and the “TOTAL PROTEIN” value [2] was 5.55 G/DL. The “URIC ACID” value [2] was 1.12 mg/dL, the “ABSOLUTE BASOPHIL” value [3] was 0 CELLS/uL and the “ABSOLUTE EOSINOPHIL” value [3] was 112 CELLS/uL. The “ABSOLUTE LYMPHOCYTE” value [3] was 12658 CELLS/uL, the “ABSOLUTE MONOCYTE” value [3] was 346 CELLS/uL and the “ABSOLUTE SEGMENTED NEUTROPHIL” value [3] was 1350.67 CELLS/uL. The BASOPHIL [3] was 0%, the EOSINOPHIL [3] was 1% and the “ERYTHROCYTE COUNT” value [3] was 5.67 x10E6/uL. For the same molecule, the HEMATOCRIT [3] was 36.5%, the HEMOGLOBIN [3] was 13.83 G/DL and the “LEUKOCYTE COUNT” value [3] was 14.47 x10E3/uL. The LYMPHOCYTE [3] was 87.33%, the “MEAN CORPUSCULAR HEMOGLOBIN” value [3] was 24.43 pg and the “MEAN CORPUSCULAR HEMOGLOBIN CONCENTRATION” value [3] was 37.9 G/DL. The “MEAN CORPUSCULAR VOLUME” value [3] was 64.47 fL, the MONOCYTE [3] was 2.33% and the NEUTROPHIL [3] was 9.33%. The “NUCLEATED RED BLOOD CELLS” value [3] was 0 /100WBC, the “PLATELET COUNT” value [3] was 1151 x10E3/uL and the “ALANINE AMINOTRANSFERASE” value [3] was 33.67 u/L. The ALBUMIN [3] was 3.67 G/DL, the “ALKALINE PHOSPHATASE” value [3] was 715.33 u/L and the “ASPARTATE AMINOTRANSFERASE” value [3] was 58.67 u/L. The “BLOOD UREA NITROGEN” value [3] was 12 mg/dL, the “CARBON DIOXIDE” value [3] was 22 mmol/L and the CHLORIDE [3] was 103.33 MEQ/L. The CHOLESTEROL [3] was 20 mg/dL, the “CREATINE PHOSPHOKINASE” value [3] was 384.33 u/L and the CREATININE [3] was 0.1 mg/dL. The GLUCOSE [3] was 148.33 mg/dL, the “LACTATE DEHYDROGENASE” value [3] was 168.67 u/L and the LIPASE [3] was 8 u/L. It also gave a PHOSPHORUS [3] of 10.77 mg/dL, a POTASSIUM [3] of 6.1 MEQ/L and an SODIUM [3] of 141.07 MEQ/L. The “TOTAL BILIRUBIN” value [3] was 0.13 mg/dL, the “TOTAL PROTEIN” value [3] was 5.3 G/DL and the “URIC ACID” value [3] was 1.13 mg/dL. For the same molecule, the “ABSOLUTE BASOPHIL” value [4] was 0 CELLS/uL, the “ABSOLUTE EOSINOPHIL” value [4] was 138 CELLS/uL and the “ABSOLUTE LYMPHOCYTE” value [4] was 9196.33 CELLS/uL. For the same molecule, the “ABSOLUTE MONOCYTE” value [4] was 408.33 CELLS/uL, the “ABSOLUTE SEGMENTED NEUTROPHIL” value [4] was 1390.67 CELLS/uL and the BASOPHIL [4] was 0%. The EOSINOPHIL [4] was 1%, the “ERYTHROCYTE COUNT” value [4] was 5.71 x10E6/uL and the HEMATOCRIT [4] was 34.9%. For the same molecule, the HEMOGLOBIN [4] was 13.2 G/DL, the “LEUKOCYTE COUNT” value [4] was 11.13 x10E3/uL and the LYMPHOCYTE [4] was 83%. The “MEAN CORPUSCULAR HEMOGLOBIN” value [4] was 23.1 pg, the “MEAN CORPUSCULAR HEMOGLOBIN CONCENTRATION” value [4] was 37.83 G/DL and the “MEAN CORPUSCULAR VOLUME” value [4] was 61.17 fL. The MONOCYTE [4] was 3.67%, the NEUTROPHIL [4] was 12.33% and the “NUCLEATED RED BLOOD CELLS” value [4] was 0 /100WBC. For the same molecule, the “PLATELET COUNT” value [4] was 1450 x10E3/uL, the “ALANINE AMINOTRANSFERASE” value [4] was 54.67 u/L and the ALBUMIN [4] was 3.87 G/DL. The “ALKALINE PHOSPHATASE” value [4] was 644.33 u/L, the “ASPARTATE AMINOTRANSFERASE” value [4] was 72.67 u/L and the “BLOOD UREA NITROGEN” value [4] was 8.33 mg/dL. For the same molecule, the “CARBON DIOXIDE” value [4] was 22.33 mmol/L, the CHLORIDE [4] was 101.33 MEQ/L and the CHOLESTEROL [4] was 17.33 mg/dL. The “CREATINE PHOSPHOKINASE” value [4] was 692.67 u/L, the CREATININE [4] was 0.12 mg/dL and the GLUCOSE [4] was 153.33 mg/dL. The “LACTATE DEHYDROGENASE” value [4] was 158 u/L, the LIPASE [4] was 4.33 u/L and the PHOSPHORUS [4] was 10.27 mg/dL. For the same molecule, the POTASSIUM [4] was 5.78 MEQ/L, the SODIUM [4] was 139.87 MEQ/L and the “TOTAL BILIRUBIN” value [4] was 0.23 mg/dL. The “TOTAL PROTEIN” value [4] was 6.07 G/DL and the “URIC ACID” value [4] was 1.63 mg/dL.
